Patent publication US20100160397A1, “OXAZOLE DERIVATIVES AND THEIR USE IN THE TREATMENT OF DIABETES AND OBESITY” (priority 2006, published 2010)

Biological target: T1, human DGAT1 (Homo sapiens, UniProt O75907)
T1 construct: made in house; host or cells: sf9 insect cells (baculovirus), membrane fraction
T1 sequence (O75907 1-488): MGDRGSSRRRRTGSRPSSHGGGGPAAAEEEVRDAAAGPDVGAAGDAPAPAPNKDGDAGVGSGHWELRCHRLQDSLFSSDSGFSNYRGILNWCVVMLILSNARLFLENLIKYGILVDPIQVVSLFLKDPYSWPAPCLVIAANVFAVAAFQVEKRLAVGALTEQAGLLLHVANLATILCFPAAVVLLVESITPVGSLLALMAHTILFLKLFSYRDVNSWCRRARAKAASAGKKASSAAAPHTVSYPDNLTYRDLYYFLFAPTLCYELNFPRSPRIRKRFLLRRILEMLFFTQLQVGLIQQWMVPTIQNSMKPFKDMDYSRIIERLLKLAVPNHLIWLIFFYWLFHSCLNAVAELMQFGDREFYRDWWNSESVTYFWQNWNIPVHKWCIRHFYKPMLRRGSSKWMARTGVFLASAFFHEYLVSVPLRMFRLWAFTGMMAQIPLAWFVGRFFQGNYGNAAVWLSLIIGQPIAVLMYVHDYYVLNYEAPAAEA
Assay: Human Enzyme Assay (DGAT1 inhibition, 14C oleoyl CoA incorporation into triolein)
Type: biochemical
Settings: human DGAT1 expressed in insect cell (sf9) membranes; 30 μM 14C oleoyl coenzyme A, 30 minutes at room temperature
Protocol: As indicated above, all of the compounds, and their corresponding pharmaceutically-acceptable salts, are useful in inhibiting DGAT1.
The in vitro assay to identify DGAT1 inhibitors uses human DGAT1 expressed in insect cell membranes as the enzyme source (Proc. Natl. Acad. Sci. 1998, 95, 13018-13023). Briefly, sf9 cells were infected with recombinant baculovirus containing human DGAT1 coding sequences and harvested after 48 h. Cells were lysed by sonication and membranes isolated by centrifuging at 28000 rpm for 1 h at 4° C. on a 41% sucrose gradient. The membrane fraction at the interphase was collected, washed, and stored in liquid nitrogen.
DGAT1 activity was assayed by a modification of the method described by Coleman (Methods in Enzymology 1992, 209, 98-102). Compound at 1-10 μM was incubated with 0.4 μg membrane protein, 5 mM MgCl2, and 10 0 μM 1,2 dioleoyl-sn-glycerol in a total assay volume of 200 μl in plastic tubes. The reaction was started by adding ^14C oleoyl coenzyme A (30 μM final concentration) and incubated at room temperature for 30 minutes. The reaction was stopped by adding 1.5 mL 2-propanol:heptane:water (80:20:2). Radioactive triolein product was separated into the organic phase by adding 1 mL heptane and 0.5 mL 0.1 M carbonate buffer pH 9.5. DGAT1 activity was quantified by counting aliquots of the upper heptane layer by liquid scintillography.

IC50: 32 µM
SMILES: COC(=O)C[C@H]1CC[C@H](c2ccc(NC(=O)c3coc(Nc4ccc(F)c(F)c4)n3)cc2)CC1 [Example 2, Methyl trans-2-{4-[4-({2-[(3,4-difluorophenyl)amino]-1,3-oxazole-4-carbonyl}amino)phenyl]cyclohexyl}acetate]
